Results published in patent US20190224164A1, “COMPOSITIONS AND METHODS FOR TREATMENT OF COPD” (Bodor Laboratories, Inc., priority 2016, published 2019).

Test system: acetylcholine-induced bronchoconstriction
Test: Acetylcholine induced bronchoconstriction in anesthetized guinea pigs
Assay type: in vivo, guinea pig
Experimental: Male Hartley guinea pigs (320±120 g) (Charles River) are housed under standard conditions. Guinea pigs are anesthetized with urethane (2 g/kg, intraperitoneally), the trachea are cannulated and the animal is respired using a small animal respiratory pump (Harvard Apparatus LTD, Kent UK). Respiratory back pressure is measured and recorded using a rodent lung function recording system (MUMED, London UK). For drug administration the right jugular vein is cannulated. Following the surgical procedure, guinea pigs are allowed to stabilize for 20 minutes. Ten minutes before acetylcholine administration, the animals are disconnected from the ventilator and either the vehicle (10 mg lactose) or different amounts of the drug (suspended in the same amount of vehicle) are administered intratracheally. The trachea is reconnected to the ventilator and changes in pulmonary mechanics are followed. Acetylcholine (10 μg/kg) is administered intravenously in every 10 minutes six times. Male Hartley guinea pigs (320±120 g) (Charles River) are housed under standard conditions. Guinea pigs are anesthetized with urethane (2 g/kg, intraperitoneally), the trachea are cannulated and the animal is respired using a small animal respiratory pump (Harvard Apparatus LTD, Kent UK). Respiratory back pressure is measured and recorded using a rodent lung function recording system (MUMED, London UK). […]

C[N+]1(C)CCC(OC(=O)C(O)(c2ccccc2)C2CCCC2)C1 (centres unmarked) [glycopyrrolate]
protective effect on the acetylcholine-induced bronchoconstriction (drug intratracheally ten minutes before acetylcholine (10 μg/kg i.v.)): protective effect | protective effect on the acetylcholine-induced bronchoconstriction (ester and zwitterion or their combination products intratracheally, acetylcholine 10 μg/kg i.v.): protective effect
